Measurements reported in patent US5597823A, “Tricyclic substituted hexahydrobenz [e]isoindole alpha-1 adrenergic antagonists” (priority 1995, dated 1997).
Counter-ions that a name gives are not always drawn.

Molecular target: T1, α-1A adrenoceptor (dog prostate) (Canis lupus, UniProt A0A8I3NK63)
T1 sequence (A0A8I3NK63 1-466): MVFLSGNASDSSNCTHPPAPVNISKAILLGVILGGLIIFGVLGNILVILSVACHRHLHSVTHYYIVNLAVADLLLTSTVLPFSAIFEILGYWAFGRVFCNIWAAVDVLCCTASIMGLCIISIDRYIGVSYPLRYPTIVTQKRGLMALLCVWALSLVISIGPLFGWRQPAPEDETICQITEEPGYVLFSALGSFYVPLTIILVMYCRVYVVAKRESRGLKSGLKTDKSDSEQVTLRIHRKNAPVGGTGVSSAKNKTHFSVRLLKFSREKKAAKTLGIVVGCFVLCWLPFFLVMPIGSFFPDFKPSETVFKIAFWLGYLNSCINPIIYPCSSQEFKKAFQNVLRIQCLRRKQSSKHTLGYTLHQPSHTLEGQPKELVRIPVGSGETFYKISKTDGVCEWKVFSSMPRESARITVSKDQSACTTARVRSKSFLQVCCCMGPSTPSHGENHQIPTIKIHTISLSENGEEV
Assay: Functional antagonism: phenylephrine (PE)-induced contraction of canine prostate strips
Format: cell-based
Conditions: Table 2b; vs phenylephrine; Schild plot
Description: Functional assays indicative of pharmacologically defined α-1 adrenoceptors were used to further characterize compounds. Inhibition of phenylephrine (PE)-induced contraction of canine prostate smooth muscle can be correlated with α-1A adrenoceptor activation. […] For each of these models, agonist dose response curves were repeated against increasing concentrations of test agent to derive a Schild plot [log ([…]) against log (molarity of test agent)] to determine the pA2.
Canine prostate strips were used in vitro as previously described (Hieble, J. P., Boyce, A. J. and Caine, M., Fed. Proc., 45:2609-2614 (1986)), to determine antagonist potencies against phenylephrine-induced contractions.

| SMILES | pA2 Dog Prostate [α-1A] |
| --- | --- |
| COc1cccc2c1CC[C@H]1CN(CCn3c(=O)[nH]c4c(sc5ccc(C(N)=O)cc54)c3=O)C[C@@H]21 [Example 46, 3-[2-((3aR,9bR)-cis-6-Methoxy-2,3,3a.4,5,9b-hexahydro-[1H]-benz[e]isoindol-1-yl)ethyl]-[1]-8-carboxamido-benzothieno[3,2-d]pyrimidine-2,4(1H,3H)-dionehydrochloride] | 9.61 |
| COc1cccc2c1CC[C@H]1CN(CCn3c(=O)[nH]c4c(sc5ncncc54)c3=O)C[C@@H]21 [Example 40, 3-[2-(cis-(3aR,9bR)-6-Methoxy-2,3,3a,4,5,9b-hexahydro-[1H]-benz[e]isoindol-1-yl)ethyl]-thieno[2,3-d:4,5]dipyrimidine-2,4(1H,3H)-dione] | 9.72 |
| COc1cccc2c1CC[C@H]1CN(CCn3c(=O)[nH]c4c(sc5cccc(C#N)c54)c3=O)C[C@@H]21 [Example 54, 3-2-((3aR,9bR)-cis-6-Methoxy-2,3,3a,4,5,9b-hexahydro-[1H]-benz[e]isoindol-1-yl)ethyl]-[1]-9-cyano-benzothieno[3,2-d]pyrimidine-2,4(1H,3H)-dione hydrochloride] | 8.74 |
| COc1cccc2c1CC[C@H]1CN(CCn3c(=O)[nH]c4c(sc5c(C#N)cccc54)c3=O)C[C@@H]21 [Example 55, 3-[2-((3aR,9bR)-cis-6-Methoxy-2,3,3a,4,5,9b-hexahydro-[1H]-benz[e]isoindol-1-yl)ethyl]-[1]-6-cyano-benzothieno[3,2-d]pyrimidine-2,4(1H,3H)-dione hydrochloride] | 8.11 |
| COc1cccc2c1CC[C@H]1CN(CCn3c(C)nc4c(sc5ccccc54)c3=O)C[C@@H]21 (relative stereo) [Example 29, dihydrochloride] | 7.43 |
| O=c1[nH]c2c(sc3ccccc32)c(=O)n1CCN1C[C@@H]2CCc3c(O)cccc3[C@@H]2C1 (relative stereo) [Example 20, 3-2-(cis-6-Hydroxy-2,3,3a,4,5,9b-hexahydro-[1H]-benz[e]isoindol-1-yl)ethyl]-[1]benzothieno[3,2-d]pyrimidine-2,4(1H,3H) -dione hydrobromide] | 7.43 |
| COc1cccc2c1[C@H]1CN(CCn3c(=O)[nH]c4c(sc5ccccc54)c3=O)C[C@H]1CC2 [Example 19, hydrochloride] | 6.66 |
| COc1cccc2c1CC[C@H]1CN(CCn3c(=O)[nH]c4c(sc5ccc(C(=O)N(C)C)cc54)c3=O)C[C@@H]21 [Example 45, hydrochloride] | 9.48 |
| COC(=O)c1ccc2sc3c(=O)n(CCN4C[C@@H]5CCc6c(OC)cccc6[C@@H]5C4)c(=O)[nH]c3c2c1 [Example 44, 3-[2-((3aR,9bR)-cis-6-Methoxy-2,3,3a,4,5,9b-hexahydro-[1H]-benz[e]isoindol-1-yl)ethyl]-[1]-8-carbomethoxy-benzothieno[3,2-d]pyrimidine-2,4(1H,3H)-dione hydrochloride] | 8.09 |
| COc1cccc2c1CC[C@H]1CN(CCn3c(=O)[nH]c4c(sc5c(Cl)cccc54)c3=O)C[C@@H]21 [Example 56, 3-[2-((3aR,9bR)-cis-6-Methoxy-2,3,3a,4,5,9b-hexahydro-[1H]-benz[e]isoindol-1-yl)ethyl]-[1]-6-chloro-benzothieno[3,2-d]pyrimidine-2,4(1H,3H)-dione hydrochloride] | 7.11 |
| COc1cccc2c1CC[C@H]1CN(CCn3c(=O)[nH]c4c(sc5ccc(C#N)cc54)c3=O)C[C@@H]21 [Example 43, 3-[2-((3aR,9bR)-cis-6-Methoxy-2,3,3a,4,5,9b-hexahydro-[1H]-benz[e]isoindol-1-yl)ethyl]-[1]-8-cyano-benzothieno[3,2-d]pyrimidine-2,4(1H,3H)-dione hydrochloride] | 8.44 |
| COc1cccc2c1CC[C@H]1CN(CCn3c(=O)[nH]c4c(sc5cc(C#N)ccc54)c3=O)C[C@@H]21 [Example 42, 3-[2-((3aR,9bR)-cis-6-Methoxy-2,3,3a,4,5,9b-hexahydro-[1H]-benz[e]isoindol-1-yl)ethyl]-[1]-7-cyano-benzothieno[3,2-d]pyrimidine-2,4(1H,3H)-dione hydrochloride] | 9.09 |
| COc1cccc2c1[C@@H]1CN(CCn3c(=O)[nH]c4c([nH]c5ccccc54)c3=O)C[C@@H]1CC2 [Example 24, hydrochloride] | 8.6 |
| COc1cccc2c1CC[C@H]1CN(CCn3c(=O)[nH]c4sc5c(c4c3=O)CCCC5)C[C@@H]21 (relative stereo) [Example 7, 3-[2-(cis-6-Methoxy-2,3,3a4,5,9b-hexahydro-[1H]-benz[e]isoindol-1-yl)ethyl]-[1]-5,6,7,8-tetrahydrobenzothieno[2,3-d]pyrimidine-2,4(1H,3H)-dione hydrochloride] | 7.85 |
| COc1cccc2c1CC[C@H]1CN(CCn3c(=O)c4sc5ccccc5c4n(C)c3=O)C[C@@H]21 [Example 33, hydrochloride] | 6.56 |
| COc1cccc2c1CC[C@H]1CN(CCn3c(-c4ccccc4)nc4c(sc5ccccc54)c3=O)C[C@@H]21 (relative stereo) [Example 30, 3-[2-(cis-6-Methoxy-2 3 3a,4,5,9b-hexahydro-[1H]-benz[e]isoindol-1-yl)ethyl]-2-phenyl-[1]benzothieno[3,2-d]-4(1H,3H)-one hydrochloride] | 7.06 |
| COc1cccc2c1CC[C@H]1CN(CCn3c(=O)[nH]c4c(sc5ccc(N(C)C)cc54)c3=O)C[C@@H]21 [Example 50, 3-[2-((3aR,9bR)-cis-6-Methoxy-2,3,3a,4,5,9b-hexahydro-[1H]-benz[e]isoindol-1-yl)ethyl]-[1]-8-N,N-dimethylamino-benzothieno[3,2-d]pyrimidine-2,4(1H,3H)-dione hydrochloride] | 7.24 |

Second part, the compound after the results:

| pA2 Dog Prostate [α-1A] | SMILES |
| --- | --- |
| 7.87 | COc1cc2sc3c(=O)n(CCN4C[C@@H]5CCc6c(OC)cccc6[C@@H]5C4)c(=O)[nH]c3c2cc1OC [Example 68, 3-[2-((3aR,9bR)-cis-6-Methoxy-2,3,3a,4,5,9b-hexahydro-[1H]-benz[e]isoindol-1-yl)ethyl]-[1]-7,8-dimethoxy-benzothieno[3,2-d]pyrimidine-2,4(1H,3H)-dionehydrochloride] |
| 9.39 | CCn1c(=O)n(CCN2C[C@@H]3CCc4c(OC)cccc4[C@@H]3C2)c(=O)c2sc3nccnc3c21 [Example 98, hydrochloride] |
| 8.57 | COc1cccc2c1CC[C@H]1CN(CCN3CNc4c(sc5ncccc45)C3=O)C[C@@H]21 [Example 70, dihydrochloride] |
| 8.43 | COc1cccc2c1CC[C@H]1CN(CCn3c(=O)[nH]c4c(ccc5cccnc54)c3=O)C[C@@H]21 [Example 83, hydrochloride] |
| 8.7 | COc1cccc2c1CC[C@H]1CN(CCn3c(=O)[nH]c4c(sc5ccc(C)cc54)c3=O)C[C@@H]21 [Example 74, 3-[2,((3aR,9bR)-cis-6-Methoxy-2,3,3a,4,5,9b-hexahydro-[1H]-benz[e]isoindol-1-yl)ethyl]-[1]-8-methyl-benzothieno[3,2-d]pyrimidine-2,4(1H,3H)-dione hydrochloride] |
| 8.75 | COc1cccc2c1CC[C@H]1CN(CCn3c(=O)[nH]c4c(sc5c(OC)ccnc54)c3=O)C[C@@H]21 [Example 65, dihydrochloride] |
| 9.5 | COc1cccc2c1CC[C@H]1CN(CCn3c(=O)c4sc5cccnc5c4n(C)c3=O)C[C@@H]21 [Example 61, dihydrochloride] |
| 8.22 | CCc1cccc2c1CC[C@H]1CN(CCn3c(=O)[nH]c4c(sc5cccnc54)c3=O)C[C@@H]21 [Example 113, dihydrochloride] |
| 8.58 | COCCn1c(=O)n(CCN2C[C@@H]3CCc4c(OC)cccc4[C@@H]3C2)c(=O)c2sc3cccnc3c21 [Example 105, hydrochloride] |
| 8.6 | COc1cccc2c1CC[C@H]1CN(CCn3c(=O)[nH]c4c(sc5c(Cl)ccnc54)c3=O)C[C@@H]21 [Example 63, 3-[2-((3aR,9bR)-cis-6-Methoxy-2,3,3a,4,5,9b-hexahydro-[1H]-benz[e]isoindol-1-yl)ethyl]-6-chloro-pyrido[2',3':4,5]thieno[3,2-d]pyrimidine-2,4(1H,3H)-dione dihydrochloride] |
| 8.99 | COc1cccc2c1CC[C@H]1CN(CCn3c(=O)[nH]c4c(ccc5cnccc54)c3=O)C[C@@H]21 [Example 84, hydrochloride] |
| 9.66 | COc1cccc2c1CC[C@H]1CN(CCn3c(=O)[nH]c4c([nH]c5ccncc54)c3=O)C[C@@H]21 [Example 97, hydrochloride] |
| 6.66 | COc1cccc2c1CC[C@H]1CN(CCn3c(=O)[nH]c4c(sc5nc(-c6ccccc6)cnc54)c3=O)C[C@@H]21 [Example 91, hydrochloride] |
| 8.00 | CCOc1cccc2c1CC[C@H]1CN(CCn3c(=O)[nH]c4c(sc5ncccc54)c3=O)C[C@@H]21 [Example 109, hydrochloride] |
